From US7399748B2, “Antitumor therapy comprising distamycin derivatives” (Nerviano Medical Sciences S.r.l., priority 2001, dated 2008) come the findings set out here.

In the assay the test system is solid tumors. Put plainly: Phase I trial, iv single administration every three weeks in patients with solid tumors. It is filed as in vivo. Conditions: one patient suffering from gastrointestinal sarcoma, dose level 5.1 mg/m^2, iv single administration every three weeks. The method, then: A phase I pharmacological trial was carried out to investigate the iv administration of the title compound given as a single administration every three weeks to patients with solid tumors.
The starting dose of 0.85 mg/m^2 was initially escalated in an accelerated design (100% dose increase; 1 patient/dose level) and then by a conventional dose escalation in 3-6 patient cohorts. 11 patients have been entered so far and 25 cycles have been evaluated for toxicity at dose levels of 0.85, 1.7, 3.4, 5.1 and 7.5 mg/M^2.

`C=C(Br)C(=O)Nc1cc(C(=O)Nc2cc(C(=O)Nc3cc(C(=O)Nc4cc(C(=O)NCCNC(=N)N)n(C)c4)n(C)c3)n(C)c2)n(C)c1.Cl` [PNU 166196, N-(5-{[(5-{[(5-{[(2-{[amino(imino)methyl]amino}ethyl)amino]carbonyl}-1-methyl-1H-pyrrol-3-yl)amino]carbonyl}-1-methyl-1H-pyrrol-3-yl)amino]carbonyl}-1-methyl-1H-pyrrol-3-yl)-4-[(2-bromoacryloyl)amino]-11-methyl-1H-pyrrole-2-carboxamide hydrochloride]: the tumor response entry is listed as “partial response”.
